Patent publication US11555821B2, “CA IX-NIR dyes and their uses” (On Target Laboratories, Inc., priority 2016, dated 2023)

Key:
[1] = system: HCC827 (a human lung cancer cell line) tumor xenograft; assay: Whole body fluorescence imaging of HCC827 tumor xenograft bearing mouse (IVIS imager); format: in vivo; conditions: 10 nmol
Experimental: HCC827 (a human lung cancer cell line) tumor xenograft bearing mouse was injected with 10 nmol of 61 and imaged with IVIS imager (ex=745 nm, em=ICG, exposure time=1 s) at different time intervals.
(§1) HT29 (a human colon cancer cell line) and HCC827 (a human lung cancer cell line) tumor xenograft bearing mouse was injected with 10 nmol of 61 and imaged with IVIS imager (ex=745 nm, em=ICG, exposure time=1 s) at different time intervals.

[2] = system: HT29 (a human colon cancer cell line) tumor xenograft; assay: Whole body fluorescence imaging of HT29 tumor xenograft bearing mouse (IVIS imager); format: in vivo; conditions: 10 nmol
Experimental: HT29 (a human colon cancer cell line) tumor xenograft bearing mouse was injected with 10 nmol of 61 and imaged with IVIS imager (ex=745 nm, em=ICG, exposure time=1 s) at different time intervals.
as §1

[3] = system: SKRC52 human renal tumor xenograft; assay: Whole body fluorescence imaging of SKRC52 human renal tumor xenograft bearing mouse (IVIS imager); format: in vivo; conditions: 10 nmol, within 2-24 hours after administering to the animal
Experimental: SKRC52 human renal tumor xenograft bearing mouse was injected with 10 nmol of 54 and imaged with IVIS imager (ex=745 nm, em=ICG, exposure time=1 s) at different time intervals.
SKRC52 human renal tumor xenograft bearing mouse was injected with 10 nmol of 55 and imaged with IVIS imager (ex=745 nm, em=ICG, exposure time=1 s) at different time intervals.
SKRC52 human renal tumor xenograft bearing mouse was injected with 10 nmol of 60 and imaged with IVIS imager (ex=745 nm, em=ICG, exposure time=[…]) at different time intervals.
SKRC52 human renal tumor xenograft bearing mouse was injected with 10 nmol of 61 and imaged with IVIS imager (ex=745 nm, em=ICG, exposure time=[…]) at different time intervals.
SKRC52 human renal tumor xenograft bearing mouse was injected with 10 nmol of 62 and imaged with IVIS imager (ex=745 nm, em=ICG, exposure time=1 s) at different time intervals.
SKRC52 human renal tumor xenograft bearing mouse was injected with 10 nmol of 65 and imaged with IVIS imager (ex=745 nm, em=ICG, exposure time=1 s) at different time intervals.
SKRC52 human renal tumor xenograft bearing mouse was injected with 10 nmol of 69 and imaged with IVIS imager (ex=745 nm, em=ICG, exposure time=1 s) at different time intervals.
SKRC52 human renal tumor xenograft bearing mouse was injected with 10 nmol of 70 and imaged with IVIS imager (ex=745 nm, em=ICG, exposure time=1 s) at different time intervals.
SKRC52 human renal tumor xenograft bearing mouse was injected with 10 nmol 72 and imaged with IVIS imager (ex=745 nm, em=ICG, exposure time=1 s) at different time intervals
SKRC52 human renal tumor xenograft bearing mouse was injected with 10 nmol of 76 and imaged with IVIS imager (ex=745 nm, em=ICG, exposure time=1 s) at different time intervals
SKRC52 human renal tumor xenograft bearing mouse was injected with 10 nmol of 77 and imaged with IVIS imager (ex=745 nm, em=ICG, exposure time=1 s) at different time intervals
SKRC52 human renal tumor xenograft bearing mouse was injected with 10 nmol of 80 and imaged with IVIS imager (ex=745 nm, em=ICG, exposure time=1 s) at different time intervals
SKRC52 human renal tumor xenograft bearing mouse was injected with 10 nmol of 81 and imaged with IVIS imager (ex=745 nm, em=ICG, exposure time=1 s) at different time intervals
SKRC52 human renal tumor xenograft bearing mouse was injected with 10 nmol of 85 and imaged with IVIS imager (ex=745 nm, em=ICG, exposure time=1 s) at different time intervals
SKRC52 human renal tumor xenograft bearing mouse was injected with 10 nmol of 86 and imaged with IVIS imager (ex=745 nm, em=ICG, exposure time=1 s) at different time intervals
SKRC52 human renal tumor xenograft bearing mouse was injected with 10 nmol of 87 and imaged with IVIS imager (ex=745 nm, em=ICG, exposure time=1 s) at different time intervals
SKRC52 human renal tumor xenograft bearing mouse was injected with 10 nmol of 88 and imaged with IVIS imager (ex=745 nm, em=ICG, exposure time=1 s) at different time intervals
SKRC52 human renal tumor xenograft bearing mouse was injected with 10 nmol of 89 and imaged with IVIS imager (ex=745 nm, em=ICG, exposure time=1 s) at different time intervals
SKRC52 human renal tumor xenograft bearing mouse was injected with 10 nmol of 90 and imaged with IVIS imager (ex=745 nm, em=ICG, exposure time=1 s) at different time intervals
SKRC52 human renal tumor xenograft bearing mouse was injected with 10 nmol of 93 and imaged with IVIS imager (ex=745 nm, em=ICG, exposure time=1 s) at different time intervals
SKRC52 human renal tumor xenograft bearing mouse was injected with 10 nmol of 95 and imaged with IVIS imager (ex=745 nm, em=ICG, exposure time=1 s) at different time intervals
SKRC52 human renal tumor xenograft bearing mouse was injected with 10 nmol of 99 and imaged with IVIS imager (ex=745 nm, em=ICG, exposure time=1 s) at different time intervals […]

[4] = system: HT29, a colorectal cancer cell line; assay: OTL410 accumulation in HT29 tumor xenografts (AMI imager); format: in vivo; conditions: HT29, 2 nmol/mouse, 4 h
Experimental: (§2) FIGS. 54A and 54B illustrate KB, a derivative of HeLa cervical cancer cell line. FIGS. 54C and 54D illustrate MDA-MB-231, a triple negative breast cancer cell line. FIGS. 54E and 54F illustrate FaDu, a head & neck cancer cell line; and FIGS. 54G and 54H illustrate HT29, a colorectal cancer cell line. OTL410 was administered at a dose of 2 nmol/mouse in 100 μl of 5% aqueous dextrose, and the images were collected 4 h later using an AMI imager with the mice under anesthesia.
(§3) Tumor Implantation and imaging: For establishing subcutaneous tumors from SKRC52, HT29 and 22RV1 cells, female nude mice were inoculated subcutaneously with 5×10^6 cells in 150 μl of 50% matrigel on the flank. […] Tumor sizes were measured using a digital calipers and tumor volumes were calculated using the formula (L/2)×W2 where L and W represent the length and width of the tumor. […] For the biodistribution studies, mice were euthanized at 3 h, 12 h or 24 h after injection of OTL410, and fluorescence images were collected ex vivo using the same instrument and imaging parameters described above. For quantification of tumor to background ratios, region of interest (ROI) was drawn for tumor and each tissue of interest and the total and mean fluorescence intensity were calculated using the proprietary software from Spectral Instruments. TBR for each organ and respective standard deviations were calculated using Excel software.

[5] = system: CAIX expressing SKRC52 tumor; assay: OTL410 fluorescence-guided resection of CAIX expressing SKRC52 tumor from nude mice; format: in vivo; conditions: 1 nmol/mouse, euthanized 24 h later
Experimental: OTL410 was administered at a dose of 1 nmol/mouse in 100 μl of 5% aqueous dextrose, and the mouse was euthanized 24 h later. FIG. 53A illustrates the image acquired after ex vivo whole-body fluorescence imaging and skin around the tumor was removed. FIG. 53B illustrates, guided by the fluorescence image, the image acquired after the tumor was resected.
as §3

[6] = system: KB, a derivative of HeLa cervical cancer cell line; assay: OTL410 accumulation in KB tumor xenografts (AMI imager); format: in vivo; conditions: 2 nmol/mouse, 4 h
Experimental: as §2, §3

[7] = system: MDA-MB-231, a triple negative breast cancer cell line; assay: OTL410 accumulation in MDA-MB-231 tumor xenografts (AMI imager); format: in vivo; conditions: MDA-MB-231, 2 nmol/mouse, 4 h
Experimental: as §2, §3

[8] = system: FaDu, a head & neck cancer cell line; assay: OTL410 accumulation in FaDu tumor xenografts (AMI imager); format: in vivo; conditions: 2 nmol/mouse, 4 h
Experimental: as §2

SKRC52 xenografts = assay: Fluorescence imaging of tumor accumulation of OTL410 in nude mice bearing SKRC52 xenografts (AMI imager); format: in vivo, mouse
Experimental: FIG. 49 illustrates the time course of tumor accumulation by OTL410 by fluorescence imaging of nude mice bearing SKRC52 xenografts. After intravenous administration of 1 nmol of the conjugate in 100 μl of 5% aqueous dextrose, mice were anesthetized by isoflurane right before collecting each image. Tumor accumulation is evident as early as 15 min after injection of the conjugate, reaching peak intensity by 4 h.
Mice were euthanized by CO2 inhalation 3 h after intravenous administration of indicated concentrations of the conjugate, and epifluorescence images were collected ex vivo (Ex=745 nm, Em=810 nm FOV=25, binning 2, lamp power=55%). Five mice/per group were used for doses 0.25 nmol to 20 nmol, and image of 1 mouse representing each dose is presented.
Tumor Implantation and imaging: For establishing subcutaneous tumors from SKRC52, HT29 and 22RV1 cells, female nude mice were inoculated subcutaneously with 5×10^6 cells in 150 μl of 50% matrigel on the flank. KB tumors were established by inoculating female nude mice subcutaneously with 1×10^6 KB cells in 100 μl of folate deficient RPMI 1640 media. MDA MB-231 tumors were established by inoculating female nude mice subcutaneously with 2×10^6 cells in 100 μl of RPMI 1640 media. Tumor sizes were measured using a digital calipers and tumor volumes were calculated using the formula (L/2)×W2 where L and W represent the length and width of the tumor. When the tumors reached desired size (500-700 mm3), mice were randomly assigned to groups of 4-5. Each mouse was injected with varying concentrations of OTL410 in 100 μl of 5% aqueous dextrose. For the time course study, mice were imaged under anesthesia at varying time points starting at 15 minutes and up to 24 h using a Spectral AMI imaging system (Spectral Instruments Imaging) using the imaging parameters t=1 sec, f stop=2, FOV=25, binning=2, and lamp power=55%. For the biodistribution studies, mice were euthanized at 3 h, 12 h or 24 h after injection of OTL410, and fluorescence images were collected ex vivo using the same instrument and imaging parameters described above. For quantification of tumor to background ratios, region of interest (ROI) was drawn for tumor and each tissue of interest and the total and mean fluorescence intensity were calculated using the proprietary software from Spectral Instruments. TBR for each organ and respective standard deviations were calculated using Excel software.

SKRC52 cells = assay: Uptake of OTL410 by SKRC cells in vitro by fluorescence microscopy; format: cell-based, human; conditions: 100 nmols, 2 h
Experimental: SKRC52 cells were incubated with 100 nmols of OTL410 for 2 h, and fluorescence images were acquired after removing unbound conjugate, and washing cells 2× with media.
For competition studies, 50,000 SKRC cells were grown on 8 well glass bottom slides for 48 h. Spent media was removed, and the cells were incubated with 100 nmols of OTL410 in 500 μl of fresh media alone or in presence of 200× non-fluorescent ligand (i.e. OTL410 without the dye) in a cell culture incubator for 2 h. Cells were then washed 2× with 500 μl of media, and after the second step of washing, 500 μl of serum free media was added to the cells. These cells were then imaged using a Nikon wide-field microscope.

[9] = 1 nmol intravenous in 5% aqueous dextrose

| time after injection at which tumor accumulation is evident (SKRC52 xenografts; [9]) [min] | time of peak tumor fluorescence intensity (SKRC52 xenografts; [9]) [h] | tumor fluorescence intensity at 8 h (SKRC52 xenografts; 1 nmol intravenous, 8 h) | tumor fluorescence intensity maintained after 24 h (SKRC52 xenografts; 1 nmol intravenous, 24 h) | SMILES | accumulation in CA IX-negative tumor xenografts of lung cancer versus other healthy tissues [1] | accumulation in CA IX-negative tumor xenografts of colon cancer versus other healthy tissues [2] | whole-body imaging data [3] | accumulation in tumor xenografts [4] | fluorescence-guided tumor resection [5] | accumulation in tumor xenografts [6] | accumulation in tumor xenografts [7] | accumulation in tumor xenografts [8] | dose dependence of accumulation in SKRC52 tumor xenografts (SKRC52 xenografts; 0.25 nmol to 20 nmol intravenous, 3 h, ex vivo images) | uptake by SKRC cells in vitro (SKRC52 cells) |
| --- | --- | --- | --- | --- | --- | --- | --- | --- | --- | --- | --- | --- | --- | --- |
| – | – | – | – | CC1(C)C(/C=C/C2=C(Oc3ccc(C[C@H](NC(=O)CCOCCOCCNC(=O)CCS(=O)(=O)c4c(F)c(F)c(S(N)(=O)=O)c(F)c4NC4CCCCCCC4)C(=O)O)cc3)C(=C/C=C3/N(CCCCS(=O)(=O)O)c4ccc(S(=O)(=O)O)cc4C3(C)C)/CCC2)=[N+](CCCCS(=O)(=O)[O-])c2ccc(S(=O)(=O)O)cc21 [Compound 61, 4-(2-((E)-2-((E)-2-(4-((S)-2-carboxy-16-((2-(cyclooctylamino)-3,5,6-trifluoro-4-sulfamoylphenyl)sulfonyl)-4,14-dioxo-7,10-dioxa-3,13-diazahexadecyl)phenoxy)-3-(2-((E)-3,3-dimethyl-5-sulfo-1-(4-sulfobutyl)indolin-2-ylidene)ethylidene)cyclohex-1-en-1-yl)vinyl)-3,3-dimethyl-5-sulfo-3H-indol-1-ium-1-yl)butane-1-sulfonate] | selectively accumulated | selectively accumulated | very good | – | – | – | – | – | – | – |
| ≤ 15 | ≤ 4 | No loss in fluorescence intensity | ~80 % of peak intensity | CC1(C)C(/C=C/C2=C(Oc3ccc(C[C@H](NC(=O)CCOCCOCCNC(=O)CCCS(=O)(=O)c4c(F)c(F)c(S(N)(=O)=O)c(F)c4NC4CCCCCCC4)C(=O)O)cc3)C(=C/C=C3/N(CCCCS(=O)(=O)O)c4ccc(S(=O)(=O)O)cc4C3(C)C)/CCC2)=[N+](CCCCS(=O)(=O)[O-])c2ccc(S(=O)(=O)O)cc21 [OTL410] | – | – | – | tumor-specific accumulation | complete removal of the tumor with no fluorescent cells left behind | tumor-specific accumulation | tumor-specific accumulation | tumor-specific accumulation | dose dependent accumulation | uptake |
